Laboratory results taken from US12655116B2, “Substituted isophthalic acid diamides” (Bayer Aktiengesellschaft, priority 2020, dated 2026).

How the values were obtained:
[1] = tested on: HORMU; test: Post-emergence herbicidal action against HORMU; assay type: in vivo, Hordeum murinum; conditions: Hordeum murinum, 504 h; for pest or weed control at 20 g/ha: dosage 20 g/ha
Description: Seeds of monocotyledonous and dicotyledonous weed and crop plants are laid out in sandy loam soil in wood-fiber pots, covered with soil and cultivated in a greenhouse under good growth conditions. 2 to 3 weeks after sowing, the test plants are treated at the one-leaf stage. The compounds of the invention, formulated in the form of wettable powders (WP) or as emulsion concentrates (EC), are then sprayed onto the green parts of the plants in the form of an aqueous suspension or emulsion at a water application rate equivalent to 600 to 800 l/ha, with addition of 0.2% wetting agent. After the test plants have been left to stand in the greenhouse under optimal growth conditions for about 3 weeks, the action of the preparations is assessed visually in comparison to untreated controls (herbicidal action in percent (%): 100% activity=the plants have died, 0% activity=like control plants). […] The tables below illustrate, in an illustrative manner, the post-emergence herbicidal action of the compounds of the invention, the herbicidal activity being stated in percent.

[2] = tested on: AMARE; test: Post-emergence herbicidal action against AMARE; assay type: in vivo, Amaranthus retroflexus; conditions: Amaranthus retroflexus, 504 h, visual assessment about 3 weeks after treatment, 100% = plants have died, 0% = like control plants
In short: (§1)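 Greenhouse plants in sandy loam were sprayed at the one-leaf stage, 2 to 3 weeks after sowing, with WP or EC formulations as aqueous suspension or emulsion (600 to 800 l/ha water, 0.2% wetting agent). Visual damage was scored about 3 weeks later versus untreated controls, 0% = like control, 100% = dead.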

[3] = tested on: ABUTH; test: Pre-emergence herbicidal action against ABUTH; assay type: in vivo, Abutilon theophrasti; conditions: Abutilon theophrasti, 504 h; for pest or weed control at 80 g/ha: scored visually after 3 weeks vs untreated controls (100% = plants have died, 0% = like control plants)
In short: (§2)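 Pre-emergence soil-surface spray of formulated compound (WP or EC; 600 to 800 l/ha; 0.2% wetting agent) over seeds sown in sandy loam. After 3 weeks under greenhouse conditions, damage is estimated visually in percent against untreated plants.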

[4] = tested on: MATIN; test: Pre-emergence herbicidal action against MATIN; assay type: in vivo, Matricaria inodora; conditions: Tripleurospermum inodorum, 504 h; for pest or weed control at 80 g/ha: dosage 80 g/ha
In short: as §2

[5] = tested on: ABUTH; test: Post-emergence herbicidal action against ABUTH; assay type: in vivo, Abutilon theophrasti; conditions: Abutilon theophrasti, 504 h, visual assessment about 3 weeks after treatment vs untreated controls; for pest or weed control at 20 g/ha: dosage 20 g/ha
In short: as §1

[6] = tested on: POLCO; test: Pre-emergence herbicidal action against POLCO; assay type: in vivo, Polygonum convolvulus; conditions: Fallopia convolvulus, 504 h, dosage 80 g/ha
In short: as §2

[7] = tested on: ECHCG; test: Pre-emergence herbicidal action against ECHCG; assay type: in vivo, Echinochloa crus-galli; conditions: Echinochloa crus-galli, 504 h
In short: as §2

[8] = tested on: ECHCG; test: Post-emergence herbicidal action against ECHCG; assay type: in vivo, Echinochloa crus-galli; conditions: Echinochloa crus-galli, 504 h; for pest or weed control at 20 g/ha: dosage 20 g/ha
In short: as §1

[9] = tested on: PHBPU; test: Post-emergence herbicidal action against PHBPU; assay type: in vivo, Pharbitis purpurea; conditions: Ipomoea purpurea, 504 h
In short: as §1

[10] = tested on: AVEFA; test: Pre-emergence herbicidal action against AVEFA; assay type: in vivo, Avena fatua; conditions: Avena fatua, 504 h, pre-emergence
In short: as §2

[11] = tested on: STEME; test: Pre-emergence herbicidal action against STEME; assay type: in vivo, Stellaria media; conditions: Stellaria media, 504 h; for pest or weed control at 80 g/ha: dosage 80 g/ha
In short: as §2

[12] = tested on: ALOMY; test: Pre-emergence herbicidal action against ALOMY; assay type: in vivo, Alopecurus myosuroides; conditions: Alopecurus myosuroides, 504 h, pre-emergence
In short: as §2

[13] = tested on: VIOTR; test: Pre-emergence herbicidal action against VIOTR; assay type: in vivo, Viola tricolor; conditions: Viola tricolor, 504 h; for pest or weed control at 80 g/ha: dosage 80 g/ha
In short: as §2

[14] = tested on: ALOMY; test: Post-emergence herbicidal action against ALOMY; assay type: in vivo, Alopecurus myosuroides; conditions: Alopecurus myosuroides, 504 h, visual assessment about 3 weeks after treatment vs untreated controls; for pest or weed control at 20 g/ha: dosage 20 g/ha
In short: as §1

[15] = tested on: DIGSA; test: Pre-emergence herbicidal action against DIGSA; assay type: in vivo, Digitaria sanguinalis; conditions: Digitaria sanguinalis, 504 h; for pest or weed control at 80 g/ha: dosage 80 g/ha
In short: as §2

[16] = tested on: MATIN; test: Post-emergence herbicidal action against MATIN; assay type: in vivo, Matricaria inodora; conditions: Tripleurospermum inodorum, 504 h; for pest or weed control at 20 g/ha: dosage 20 g/ha
In short: as §1

[17] = tested on: SETVI; test: Pre-emergence herbicidal action against SETVI; assay type: in vivo, Setaria viridis; conditions: Setaria viridis, 504 h; for pest or weed control at 80 g/ha: dosage 80 g/ha
In short: as §2

[18] = tested on: AMARE; test: Pre-emergence herbicidal action against AMARE; assay type: in vivo, Amaranthus retroflexus; conditions: Amaranthus retroflexus, 504 h, 100% = plants have died, 0% = like control plants
In short: as §2

[19] = tested on: PHBPU; test: Pre-emergence herbicidal action against PHBPU; assay type: in vivo, Pharbitis purpurea; conditions: Ipomoea purpurea, 504 h, dosage 80 g/ha
In short: as §2

[20] = tested on: VIOTR; test: Post-emergence herbicidal action against VIOTR; assay type: in vivo, Viola tricolor; conditions: Viola tricolor, 504 h
In short: as §1

[21] = tested on: STEME; test: Post-emergence herbicidal action against STEME; assay type: in vivo, Stellaria media; conditions: Stellaria media, 504 h
In short: as §1

[22] = tested on: HORMU; test: Pre-emergence herbicidal action against HORMU; assay type: in vivo, Hordeum murinum; conditions: Hordeum murinum, 504 h, pre-emergence
In short: as §2

[23] = tested on: SETVI; test: Post-emergence herbicidal action against SETVI; assay type: in vivo, Setaria viridis; conditions: Setaria viridis, 504 h
In short: as §1

[24] = tested on: DIGSA; test: Post-emergence herbicidal action against DIGSA; assay type: in vivo, Digitaria sanguinalis; conditions: Digitaria sanguinalis, 504 h
In short: as §1

[25] = tested on: AVEFA; test: Post-emergence herbicidal action against AVEFA; assay type: in vivo, Avena fatua; conditions: Avena fatua, 504 h, visual assessment about 3 weeks after treatment, 100% = plants have died, 0% = like control plants
In short: as §1

[26] = tested on: VERPE; test: Pre-emergence herbicidal action against VERPE; assay type: in vivo, Veronica persica; conditions: Veronica persica, 504 h, dosage 320 g/ha
In short: as §2

[27] = tested on: VERPE; test: Post-emergence herbicidal action against VERPE; assay type: in vivo, Veronica persica; conditions: Veronica persica, 504 h, 80 g/ha
In short: as §1

[28] = scored visually after 3 weeks vs untreated controls
[29] = 320 g/ha, scored visually after 3 weeks, 100% = plants have died, 0% = like control plants

CCn1nnnc1NC(=O)c1ccc(C(F)(F)F)c(C(=O)NC2CC2)c1Cl [Example 2-131]
pest or weed control at 20 g/ha [1]: 100% | pest or weed control at 20 g/ha ([2]; 20 g/ha): 100% | pest or weed control at 80 g/ha [3]: 100% | pest or weed control at 20 g/ha ([3]; dosage 20 g/ha, scored visually after 3 weeks vs untreated controls, 100% = plants have died, 0% = like control plants, read-out: Pre-emergence action against ABUTH (herbicidal activity in percent)): 100% | pest or weed control at 20 g/ha ([4]; dosage 20 g/ha): 90% | pest or weed control at 80 g/ha [4]: 100% | pest or weed control at 20 g/ha [5]: 90% | pest or weed control at 80 g/ha [6]: 90% | pest or weed control at 80 g/ha [7]: 100% | pest or weed control at 20 g/ha [8]: 80% | pest or weed control at 20 g/ha ([9]; dosage 20 g/ha): 80% | pest or weed control at 80 g/ha [10]: 100% | pest or weed control at 20 g/ha ([11]; dosage 20 g/ha): 100% | pest or weed control at 80 g/ha [11]: 100% | pest or weed control at 80 g/ha ([12]; 80 g/ha, scored visually after 3 weeks vs untreated controls (100% = plants have died, 0% = like control plants)): 100% | pest or weed control at 20 g/ha ([12]; 20 g/ha, scored visually after 3 weeks, 100% = plants have died, 0% = like control plants): 90% | pest or weed control at 20 g/ha ([13]; dosage 20 g/ha): 100% | pest or weed control at 80 g/ha [13]: 100% | pest or weed control at 20 g/ha [14]: 80% | pest or weed control at 20 g/ha ([15]; dosage 20 g/ha): 90% | pest or weed control at 80 g/ha [15]: 100% | pest or weed control at 5 g/ha ([16]; dosage 5 g/ha): 90% | pest or weed control at 20 g/ha [16]: 100% | pest or weed control at 20 g/ha ([17]; dosage 20 g/ha): 80% | pest or weed control at 80 g/ha [17]: 100% | pest or weed control at 20 g/ha ([18]; 20 g/ha, scored visually after 3 weeks vs untreated controls): 100% | pest or weed control at 80 g/ha [18, 28]: 100% | pest or weed control at 80 g/ha [19]: 80% | pest or weed control at 5 g/ha ([20]; 5 g/ha): 100% | pest or weed control at 20 g/ha ([20]; 20 g/ha): 100% | pest or weed control at 20 g/ha [21]: 90% | pest or weed control at 5 g/ha ([21]; dosage 5 g/ha): 90% | pest or weed control at 80 g/ha ([22]; 80 g/ha): 80% | pest or weed control at 5 g/ha ([23]; dosage 5 g/ha): 90% | pest or weed control at 20 g/ha ([23]; dosage 20 g/ha): 100% | pest or weed control at 5 g/ha ([24]; 5 g/ha): 90% | pest or weed control at 20 g/ha [24]: 90% | pest or weed control at 5 g/ha ([25]; 5 g/ha): 80% | pest or weed control at 20 g/ha ([25]; 20 g/ha): 80%

CCNC(=O)c1c(C(F)(F)F)ccc(C(=O)Nc2nnc(C)o2)c1Cl [Example 6-117]
pest or weed control at 20 g/ha [1]: 80% | pest or weed control at 80 g/ha ([1]; dosage 80 g/ha): 90% | pest or weed control at 80 g/ha ([2]; 80 g/ha): 80% | pest or weed control at 80 g/ha [3]: 100% | pest or weed control at 320 g/ha ([3]; Dosage: 320 g/ha, scored visually after 3 weeks, 100% = plants have died, 0% = like control plants): 100% | pest or weed control at 80 g/ha [4]: 100% | pest or weed control at 320 g/ha ([4]; dosage 320 g/ha): 100% | pest or weed control at 20 g/ha [5]: 80% | pest or weed control at 80 g/ha ([5]; dosage 80 g/ha): 80% | pest or weed control at 80 g/ha [7]: 90% | pest or weed control at 320 g/ha ([7]; 320 g/ha): 100% | pest or weed control at 20 g/ha [8]: 80% | pest or weed control at 80 g/ha ([8]; dosage 80 g/ha): 80% | pest or weed control at 80 g/ha ([9]; dosage 80 g/ha): 80% | pest or weed control at 80 g/ha [10]: 100% | pest or weed control at 320 g/ha [10, 29]: 100% | pest or weed control at 80 g/ha [11]: 100% | pest or weed control at 320 g/ha ([11]; dosage 320 g/ha): 100% | pest or weed control at 320 g/ha [12, 29]: 90% | pest or weed control at 80 g/ha [13]: 80% | pest or weed control at 320 g/ha ([13]; dosage 320 g/ha): 100% | pest or weed control at 20 g/ha [14]: 80% | pest or weed control at 80 g/ha ([14]; dosage 80 g/ha): 90% | pest or weed control at 80 g/ha [15]: 100% | pest or weed control at 320 g/ha ([15]; dosage 320 g/ha): 100% | pest or weed control at 320 g/ha [26]: 90% | pest or weed control at 20 g/ha [16]: 90% | pest or weed control at 80 g/ha ([16]; dosage 80 g/ha): 90% | pest or weed control at 80 g/ha [17]: 100% | pest or weed control at 320 g/ha ([17]; dosage 320 g/ha): 100% | pest or weed control at 80 g/ha [18, 28]: 100% | pest or weed control at 320 g/ha ([18]; 320 g/ha, scored visually after 3 weeks): 100% | pest or weed control at 80 g/ha [27]: 80% | pest or weed control at 80 g/ha ([20]; 80 g/ha): 80% | pest or weed control at 20 g/ha [21]: 90% | pest or weed control at 80 g/ha ([21]; 80 g/ha): 90% | pest or weed control at 320 g/ha ([22]; 320 g/ha): 100% | pest or weed control at 20 g/ha [24]: 80% | pest or weed control at 80 g/ha ([24]; 80 g/ha): 90% | pest or weed control at 80 g/ha ([25]; 80 g/ha): 90%
